Reference: paper PMC11172460 (International Journal of Molecular Sciences, 2024)
In brackets after ≈: the same amount, converted by molar mass. Several values for one entry are separate records, joined by “and”; a condition that tells them apart may be missing. Identical values can stand only once. Like-named read-outs stand apart in the source and are kept apart here.

Columns and labels:
Solubility measurements = type: physicochemical; settings: 25 °C, thermodynamic from solid
Protocol: Solubility measurements of pure Fer-Ger were performed by adding an excess amount of Fer-Ger (about 10 mg) in 5 mL of pure water, DPBS, or a mixture made of DPBS and methanol (70:30 v/v) at 25 °C. The samples were magnetically stirred for 48 h. The supernatant was filtered through a 0.45 μm regenerate-cellulose membrane filter, and 10 µL of the filtered samples were injected into the HPLC-DAD system for Fer-Ger quantification. The study was performed in triplicate.

[1] = test system: neuronal differentiated N2a cells; assay: MTT assay for evaluation of Fer-Ger toxicity; type: cell-based, mouse; settings: 1 h exposure
Protocol: N2a cells were seeded on T75 flasks and grown in Dulbecco’s Modified Eagle Medium (DMEM) containing Glutamax, supplemented with 100 μg/mL streptomycin, 100 IU/mL penicillin, and 10% fetal bovine serum (FBS) in a humidified 5% CO2 atmosphere at 37 °C. After two passages by trypsinization, cells were seeded at a density of 5 × 10^3 cells/well in 12-well plates with 2 mL of DMEM or at a density of 5 × 10^2 cells/well in 96-well plates with 0.2 mL of DMEM, depending on the study (see below). […]
The potential neurotoxicity of Fer-Ger in N2a differentiated cells, seeded at a density of 5 × 10^2 cells/well in a 96-well plate as reported above, was assayed with the 3-(4,5-dimethylthiazol-2-yl)-2,5-diphenyltetrazolium (MTT) test after incubation for 1 h at 37 °C in a humidified 5% of CO2 atmosphere at 37 °C with increasing concentrations (1, 5, 10, 40, 70, 100 µM) of Fer-Ger dissolved in 0.2 mL of DPBS, supplemented with 0.9 mM CaCl2, 0.5 mM MgCl2, 5.3 mM glucose, and 0.1% BSA to ensure the solubilization of the compound in aqueous media. […] Finally, the absorbance of each well was measured at 570 nm using a microtiter plate reader (Sunrise® Microplate Reader, Tecan Trading AG, Männedorf, Switzerland). The values were expressed as cell vitality percentages with respect to control in the absence of compounds. […]

differentiated N2a cells = assay: MTT assay of H2O2-altered viability (neuroprotection); type: cell-based, mouse; settings: then 100 µM H2O2 for 24 h
Protocol: (§1) N2a cells were seeded on T75 flasks and grown in Dulbecco’s Modified Eagle Medium (DMEM) containing Glutamax, supplemented with 100 μg/mL streptomycin, 100 IU/mL penicillin, and 10% fetal bovine serum (FBS) in a humidified 5% CO2 atmosphere at 37 °C. After two passages by trypsinization, cells were seeded at a density of 5 × 10^3 cells/well in 12-well plates with 2 mL of DMEM or at a density of 5 × 10^2 cells/well in 96-well plates with 0.2 mL of DMEM, depending on the study (see below). For neural differentiation, N2a cells were allowed to adhere and proliferate in wells for 4 days; then, after washing once with serum-free DMEM, differentiating medium composed of DMEM containing 1% HS and 20 μM all-trans-retinoic acid (atRA) was added in both the seeding conditions, up to 6 days of differentiation, after which the cells were used for the experiments.
The MTT assay was also carried out to determine the neuroprotective effect of Fer-Ger on H2O2-induced cell oxidative stress in N2a neuronal cells. Briefly, N2a cells (5 × 10^2) were seeded and differentiated into 96-well plates, as reported above. Then, cells were incubated with 1 µM and 5 µM Fer-Ger dissolved in DMEM containing 0.5% HS for 1 h in a humidified 5% CO2 atmosphere at 37 °C. The experimental design therefore included cells incubated with only culture medium as a control and cells incubated for 24 h with 100 µM H2O2 as a damage-inducing agent after 1 h of preincubation in the absence or presence of 1 µM or 5 µM Fer-Ger. Then, 20 μL of MTT (5 mg/mL) was added into the 200 µL of the incubation medium. Four hours later, the medium containing MTT was aspirated and replaced by 100 µL of dimethyl sulfoxide (DMSO) solubilization agent for 1 h at 37 °C in an orbital shaker incubator. Finally, the absorbance of each well was measured at 570 nm using a microtiter plate reader (Sunrise® Microplate Reader, Tecan Trading AG, Männedorf, Switzerland).

[2] = Kinetic analysis (stability) in Tris-HCl buffer; type: physicochemical; settings: Tris-HCl buffer pH 7.4 (with MeOH 70:30), 37 °C, three hours, 20 µM
Protocol: Kinetic analysis of Fer-Ger was performed by its incubation at 20 µM (6.61 µg/mL) final concentration and at 37 °C in 30 mL of a mixture of Tris-HCl buffer 50 mM (pH 7.4) and MeOH 70:30 (v/v). […] All the values were derived from the mean of three independent incubation experiments.
Fer-Ger and its hydrolysis product, Ger, were quantified by HPLC. The chromatographic apparatus consisted of a modular system (model LC-40D) pump and DAD detector (model SPD-M40, Shimadzu, Kyoto, Japan) and an injection valve with a 20 μL sample loop (model 7725; Rheodyne, IDEX, Torrance, CA, USA).

[3] = test system: neuronal differentiated N2a cells; assay: Time-course of uptake in neuronal differentiated N2a cells; type: cell-based, mouse
Protocol: as §1
The potential ability of Fer-Ger to enter the neuronal cells of the brain, where it may exert its neuroprotective effects, was evaluated in 9 days-neuronal differentiated N2a cells (5 × 10^3 cells/well in a 12-well plate) at its best non-toxic concentrations of 5 µM and 10 µM in MTT. For their optimal dissolution, 5 µM and 10 µM Fer-Ger solutions in DPBS containing 0.1% BSA were kept for 30 min at 37 °C before the uptake experiment. Each of the 12-well plates was rinsed once with 1 mL of DPBS, and then 1 mL of 5 µM and 10 µM Fer-Ger was added to the test wells, and the plate was incubated for pre-determined interval times (5, 15, 30, and 60 min) in a humidified 5% CO2 atmosphere at 37 °C. The incubation was stopped at each time by taking the incubation DPBS from each well and storing it in Eppendorf tubes. […] The final number of cells was evaluated on untreated wells following their trypsinization and counted using the Scepter^TM 2.0 automated cell counter (Merck Millipore, Milan, Italy). Each reported value represents the mean of four independent incubation experiments.

- solubility at 48 h (Solubility measurements; DPBS, aqueous buffer, read-out: solubility in DPBS): 0.24 ± 0.01 µg/mL (≈ 0.726 µM)
- solubility at 48 h (Solubility measurements; DPBS/methanol 70:30 v/v, aqueous with cosolvent or surfactant or cyclodextrin, DPBS and MeOH 70:30 v/v, read-out: solubility in mixture of DPBS and MeOH): 8.1 ± 0.3 µg/mL (≈ 24.5 µM)
- solubility at 48 h (Solubility measurements; pure water, water, read-out: water solubility): 0.26 µg/mL and 0.77 µM
- degradation in Tris-HCl buffer [2]: not degraded
- hydrolysis by neuronal cells (Ger detection intra- and extracellular) ([3]; N2a cells, 5 and 10 μM, up to 60 min): not hydrolyzed by neuronal cells
Structure (SMILES): COc1cc(/C=C/C(=O)OC/C=C(\C)CCC=C(C)C)ccc1O [Fer-Ger, Geranyl ferulate]
- concentration at which neurotoxic effect starts ([1]; p < 0.05 vs untreated cells): 40 µM
- IC50 ([1]; Mus musculus, neuronal differentiated N2a cells, read-out: IC50 value of cell viability): 84.09 ± 0.26 µM
- prevention of H2O2-induced cell viability damage (differentiated N2a cells; 1 µM Fer-Ger preincubated 1 h): fully prevented
- prevention of H2O2-induced cell viability damage (differentiated N2a cells; 5 µM Fer-Ger preincubated 1 h): fully prevented
- intracellular concentration (cellular uptake), saturation ([3]; 5 μM Fer-Ger in DPBS, within 60 min, 37 °C): 18.36 ± 2.52 ng/5 × 10^4 cells
- intracellular concentration (cellular uptake) ([3]; 5 μM Fer-Ger in DPBS, within the first 5 min of incubation, 37 °C): 9.46 ± 0.98 ng/5 × 10^4 cells
- intracellular concentration (cellular uptake), steady state ([3]; 10 μM Fer-Ger in DPBS, within 60 min, 37 °C): 46.73 ± 2.25 ng/5 × 10^4 cells
- intracellular concentration (cellular uptake) ([3]; 10 μM Fer-Ger in DPBS, within the first 5–15 min of incubation, 37 °C): 36.83 ± 1.65 ng/5 × 10^4 cells
